The values below come from patent US20240018166A1, “SULFONYL UREA NLRP3 INFLAMMASOME INHIBITORS” (Venatorx Pharmaceuticals, Inc., priority 2020, published 2024).

One data set deals with IL-1β. Briefly: IL-1β inhibition assay (ELISA/HTRF of culture supernatants). The data set is classed as cell-based. As to conditions: Homo sapiens, PMA-differentiated THP-1 cells, tested 10 μM to 0.003 μM. On the procedure: Human monocyte-like THP-1 cells were grown in RPMI media supplemented with 10% FBS (growth media) at 37° C., 5% CO2. Cell cultures were passaged every three days and maintained at a density of 5×10^5 to 1×10^6 cells per mL.
Compounds were prepared as 10 mM stock solutions in 100% DMSO. […] Each 200× dilution was then diluted 20-fold in growth media (step down dilution) to yield a 10× final assay concentration range. All compounds were tested over a final assay concentration range of 10 μM to 0.003 μM.
The level of IL-10 in supernatants from PMA-differentiated THP-1 cells was determined by ELISA using either the R&D Systems Human IL-1 beta/IL-1F2 Quantikine ELISA or the cisbio HTRF human IL 1 beta kit. Manufacturer's protocols were followed without deviation.
Background values were subtracted and resulting values were converted to percentage of vehicle-treated controls. Data was analyzed via GraphPad Prism 7.0 using a non-linear regression (variable slope (four-parameter)) equation.
Table 2 provides IL-10 ELISA EC50 values for example compounds. A indicates EC50>10 μM; B indicates EC50 between 1 and 10 μM (inclusive); C indicates EC50<1 μM.
(An ELISA detects its analyte on a solid surface through an enzyme-linked reagent.)

Data set [1] is described as follows: MTT cell viability assay, THP-1 cells. The note with it: human, unstimulated THP-1 cells, read-out: THP-1 Cytotoxicity CC50. The data set is classed as cell-based. The protocol: In order to assess the cytotoxicity of the compounds, an MTT cell viability assay was performed in either unstimulated THP-1 or HepG2 cells as follows. 5×10^4 THP-1 or 5×10^3 HepG2 cells were seeded into each well of a 96-well plate in 90 μL of media. Compounds were added to cells as described for the IL-10 assay and returned to the incubator for an additional 72 hours. Next, 25 μL of MTT solution (5 mg/mL in sterile PBS) was added to each well. Plates were incubated for 3 hours at 37° C., 5% CO2. Next, for THP-1 cells, 100 μl of MTT solubilization solution (40% Dimethylformamide, 2% glacial acetic acid, 16% sodium dodecyl sulfate) was then added to each well and plates were incubated at room temperature in the dark overnight. For HepG2 cells, media was aspirated, 50 μL of DMSO was added and plates were mixed briefly with an orbital plate shaker. Absorbance at 570 nm was measured using a Perkin-Elmer EnVision plate reader.
Absorbance values were converted to percentage of vehicle-treated controls. Data was then analyzed using a non-linear regression (variable slope (four-parameter)) equation in GraphPad Prism 7.0.
Table 2 provides THP-1 cytotoxicity assay CC50 values for example compounds. A indicates CC50>10 μM; B indicates CC50 between 1 and 10 μM (inclusive); C indicates CC50<1 μM. NT, not tested.
Background: Tetrazolium dyes change colour on reduction, which living cells bring about.

The compound `O=C(Nc1c2c(cc3c1CCC3)CCC2)NS(=O)(=O)c1ccc(CCCB(O)O)c(O)c1` [Example 40, (3-(4-(N-((1,2,3,5,6,7-hexahydro-s-indacen-4-yl)carbamoyl)sulfamoyl)-2-hydroxyphenyl)propyl)boronic acid] came in with a half-maximal effective concentration (EC50) in the data set with IL-1β of 1 to 10 µM. The CC50 at 72 h in data set [1] was over 10 µM.
In the case of `CC1(C)OB(CCCn2ccc(S(=O)(=O)NC(=O)Nc3c4c(cc5c3CCC5)CCC4)n2)OC1(C)C` [Example 59, N-((1,2,3,5,6,7-hexahydro-s-indacen-4-yl)carbamoyl)-1-(3-(4,4,5,5-tetramethyl-1,3,2-dioxaborolan-2-yl)propyl)-1H-pyrazole-3-sulfonamide], the EC50 with IL-1β is under 1 µM. In addition, the CC50 at 72 h in data set [1] was over 10 µM.
The like results for `CC(C)c1cccc(C(C)C)c1NC(=O)NS(=O)(=O)c1ccc(B(O)O)s1` [Example 5, (5-(N-((2,6-diisopropylphenyl)carbamoyl)sulfamoyl)thiophen-2-yl)boronic acid] were, in that order, 1 to 10 µM and over 10 µM.
In the data set on IL-1β, `CC(C)c1cc(B(O)O)cc(C(C)C)c1NC(=O)NS(=O)(=O)c1ccn(C(C)C)n1` [Example 31, (3,5-diisopropyl-4-(3-((1-isopropyl-1H-pyrazol-3-yl)sulfonyl)ureido)phenyl)boronic acid] came in with an EC50 of over 10 µM. Moreover, in data set [1], the CC50 at 72 h was over 10 µM.
`COc1cc(-c2ccc3c(c2NC(=O)NS(=O)(=O)c2ccc4c(c2)COB4O)CCC3)ccn1` [Example 51, 1-hydroxy-N-((5-(2-methoxypyridin-4-yl)-2,3-dihydro-1H-inden-4-yl)carbamoyl)-1,3-dihydrobenzo[c][1,2]oxaborole-5-sulfonamide] displayed an EC50 with IL-1β of 1 to 10 µM. In data set [1], the half-maximal cytotoxic concentration (CC50) at 72 h is over 10 µM.
Turning to `CC(C)c1cc(B2OC(C)(C)C(C)(C)O2)cc(C(C)C)c1NC(=O)NS(=O)(=O)c1ccn(C(C)C)n1` [Example 30, N-((2,6-diisopropyl-4-(4,4,5,5-tetramethyl-1,3,2-dioxaborolan-2-yl)phenyl)carbamoyl)-1-isopropyl-1H-pyrazole-3-sulfonamide], in the data set on IL-1β, the EC50 fell in the range of 1 to 10 µM. Further, the CC50 at 72 h in data set [1] is over 10 µM.
The like results for `Cc1ccc(S(=O)(=O)NC(=O)Nc2c(C(C)C)cccc2C(C)C)cc1B(O)O` [Example 7, (5-(N-((2,6-diisopropylphenyl)carbamoyl)sulfamoyl)-2-methylphenyl)boronic acid] were, in that order, 1 to 10 µM and over 10 µM.
In the data set on IL-1β, `CC1(C)[C@@H]2C[C@H]3OB(CCCc4cc(S(=O)(=O)NC(=O)Nc5c6c(cc7c5CCC7)CCC6)ccc4O)O[C@@]3(C)[C@H]1C2` [Example 49, N-((1,2,3,5,6,7-hexahydro-s-indacen-4-yl)carbamoyl)-4-hydroxy-3-(3-((3aS,4S,6S,7aR)-3a,5,5-trimethylhexahydro-4,6-methanobenzo[d][1,3,2]dioxaborol-2-yl)propyl)benzenesulfonamide] displayed an EC50 of 1 to 10 µM. Besides, the CC50 at 72 h in data set [1] was over 10 µM.
In the data set with IL-1β, `CC1(C)[C@@H]2CC3OB(c4ccc(S(=O)(=O)NC(=O)Nc5c6c(cc7c5CCC7)CCC6)cc4)O[C@@]3(C)[C@H]1C2` (stereo partly drawn) [Example 14, N-((1,2,3,5,6,7-hexahydro-s-indacen-4-yl)carbamoyl)-4-((3aS,4S,6S)-3a,5,5-trimethylhexahydro-4,6-methanobenzo[d][1,3,2]dioxaborol-2-yl)benzenesulfonamide] showed an EC50 of 1 to 10 µM. In addition, the CC50 at 72 h in data set [1] is over 10 µM.
Compound `O=C(Nc1c2c(cc3c1CCC3)CCC2)NS(=O)(=O)c1cccc(B(O)O)c1` [Example 1, (3-(N-((1,2,3,5,6,7-hexahydro-s-indacen-4-yl)carbamoyl)sulfamoyl)phenyl)boronic acid] returned an EC50 in the data set on IL-1β of 1 to 10 µM. Besides, the CC50 at 72 h in data set [1] is over 10 µM.
The like results for `CC(C)c1cc(B(O)O)cc(C(C)C)c1NC(=O)NS(=O)(=O)c1cnn(C(C)C)c1` [Example 24, (3,5-diisopropyl-4-(3-((1-isopropyl-1H-pyrazol-4-yl)sulfonyl)ureido)phenyl)boronic acid] were, in that order, 1 to 10 µM and over 10 µM.
`COC(=O)c1ccc(S(=O)(=O)NC(=O)Nc2c3c(cc4c2CCC4)CCC3)cc1B(O)O` [Example 35, (5-(N-((1,2,3,5,6,7-hexahydro-s-indacen-4-yl)carbamoyl)sulfamoyl)-2-(methoxycarbonyl)phenyl)boronic acid] gave an EC50 in the data set with IL-1β of over 10 µM. Besides, in data set [1], the half-maximal cytotoxic concentration (CC50) at 72 h was over 10 µM.
The compound `COc1ccc(B(O)O)cc1S(=O)(=O)NC(=O)Nc1c(C(C)C)cccc1C(C)C` [Example 8, (3-(N-((2,6-diisopropylphenyl)carbamoyl)sulfamoyl)-4-methoxyphenyl)boronic acid] displayed an EC50 with IL-1β of over 10 µM. In addition, the cytotoxic concentration (CC50) at 72 h in data set [1] was over 10 µM.
In turn, `CC(C)c1cc(B(O)O)ccc1NC(=O)NS(=O)(=O)c1cnn(C(C)C)c1` [Example 19, (3-isopropyl-4-(3-((1-isopropyl-1H-pyrazol-4-yl)sulfonyl)ureido)phenyl)boronic acid] displayed an EC50 with IL-1β of over 10 µM. In addition, the CC50 at 72 h in data set [1] is over 10 µM.
`CC1(C)[C@@H]2C[C@H]3OB(c4cccc(S(=O)(=O)NC(=O)Nc5c6c(cc7c5CCC7)CCC6)c4)O[C@@]3(C)[C@H]1C2` [Example 2, N-((1,2,3,5,6,7-hexahydro-s-indacen-4-yl)carbamoyl)-3-((3aS,4S,6S,7aR)-3a,5,5-trimethylhexahydro-4,6-methanobenzo[d][1,3,2]dioxaborol-2-yl)benzenesulfonamide] registered a 50% effective concentration (EC50) in the data set with IL-1β of 1 to 10 µM. The CC50 at 72 h in data set [1] is over 10 µM.
For `O=C(Nc1c2c(cc3c1CCC3)CCC2)NS(=O)(=O)c1ccc(O)c(CB(O)O)c1` [Example 38, (5-(N-((1,2,3,5,6,7-hexahydro-s-indacen-4-yl)carbamoyl)sulfamoyl)-2-hydroxybenzyl)boronic acid] the same measures were 1 to 10 µM and over 10 µM.
For `CC(C)n1cc(S(=O)(=O)NC(=O)Nc2cc(B3OC(C)(C)C(C)(C)O3)ccc2C2CC2)cn1` [Example 20, N-((2-cyclopropyl-5-(4,4,5,5-tetramethyl-1,3,2-dioxaborolan-2-yl)phenyl)carbamoyl)-1-isopropyl-1H-pyrazole-4-sulfonamide] the same measures were over 10 µM and over 10 µM.
Turning to `COc1cc(S(=O)(=O)NC(=O)Nc2c3c(cc4c2CCC4)CCC3)ccc1CB1O[C@@H]2C[C@@H]3C[C@@H](C3(C)C)[C@]2(C)O1` [Example 42, N-((1,2,3,5,6,7-hexahydro-s-indacen-4-yl)carbamoyl)-3-methoxy-4-(((3aS,4S,6S,7aR)-3a,5,5-trimethylhexahydro-4,6-methanobenzo[d][1,3,2]dioxaborol-2-yl)methyl)benzenesulfonamide], the EC50 in the data set with IL-1β was under 1 µM. Besides, the CC50 at 72 h in data set [1] was over 10 µM.
For `CC1(C)OB(CCCc2cccc(S(=O)(=O)NC(=O)Nc3c4c(cc5c3CCC5)CCC4)c2)OC1(C)C` [Example 46, N-((1,2,3,5,6,7-hexahydro-s-indacen-4-yl)carbamoyl)-3-(3-(4,4,5,5-tetramethyl-1,3,2-dioxaborolan-2-yl)propyl)benzenesulfonamide] the same measures were 1 to 10 µM and over 10 µM.
The compound `O=C(Nc1c2c(cc3c1CCC3)CCC2)NS(=O)(=O)c1ccc(B(O)O)s1` [Example 12, (5-(N-((1,2,3,5,6,7-hexahydro-s-indacen-4-yl)carbamoyl)sulfamoyl)thiophen-2-yl)boronic acid] yielded a concentration giving a half-maximal response (EC50) with IL-1β of 1 to 10 µM. Also, the CC50 at 72 h in data set [1] is over 10 µM.
The like results for `CC(C)c1cc(B2OC(C)(C)C(C)(C)O2)ccc1NC(=O)NS(=O)(=O)c1cnn(C(C)C)c1` [Example 18, 1-isopropyl-N-((2-isopropyl-4-(4,4,5,5-tetramethyl-1,3,2-dioxaborolan-2-yl)phenyl)carbamoyl)-1H-pyrazole-4-sulfonamide] were, in that order, over 10 µM and over 10 µM.
For `COc1ccc(S(=O)(=O)NC(=O)Nc2c3c(cc4c2CCC4)CCC3)cc1CCCB1OC(C)(C)C(C)(C)O1` [Example 45, N-((1,2,3,5,6,7-hexahydro-s-indacen-4-yl)carbamoyl)-4-methoxy-3-(3-(4,4,5,5-tetramethyl-1,3,2-dioxaborolan-2-yl)propyl)benzenesulfonamide], the EC50 in the data set on IL-1β was in the range of 1 to 10 µM. Further, the cytotoxic concentration (CC50) at 72 h in data set [1] is over 10 µM.

What is called EC50 is the concentration at which the effect is half-maximal. Low readings indicate greater potency, high ones weaker potency. A word on the CC50: it is the concentration that lowers cell viability or growth by half.
